Assay results from patent US10226041B2, “Compositions and methods for improving the quality of processed sperm” (Inguran, LLC, priority 2011, dated 2019).
Values joined by “and” are separate entries in the source; they are usually repeats but may differ in a detail not shown here. Identical values can stand only once.

System: sex-sorted sperm cells
Assay: Percent intact acrosomes (PIA) of sex sorted sperm post-thaw
Assay type: cell-based, bovine
Conditions: for PIA: 3 step
Excerpt: In the tables below: VAP (average path velocity (μm/s)); VSL (straight-line velocity (μm/s)); VCL (curvilinear velocity (μm/s)); ALH (average lateral head displacement (μm)); BCF (the number of times the sperm head crosses the mean path/s in Hz); STR (percent straight-line sperm motility); LIN (percent linear sperm motility); PIA (percent intact acrosomes); motile (percent motile sperm); and progressive (percent progressively motile sperm).

O=C(O)CCC(=O)C(=O)O [AKG, Alpha-ketoglutarate] gave a PIA (Holstein 3 hr post-thaw (1st block), .25 mg/ml) of 89, a PIA (Holstein 3 hr post-thaw (1st block), .35 mg/ml) of 80 and a PIA (Holstein 3 hr post-thaw (1st block), .45 mg/ml) of 80. It also gave a PIA (Holstein 3 hr post-thaw (2nd block), .25 mg/ml) of 89, a PIA (Holstein 3 hr post-thaw (2nd block), .35 mg/ml) of 80 and a PIA (Holstein 3 hr post-thaw (2nd block), .45 mg/ml) of 80. The PIA (Holstein 6 hr post-thaw (1st block), .25 mg/ml) was 73, the PIA (Holstein 6 hr post-thaw (1st block), .35 mg/ml) was 85 and the PIA (Holstein 6 hr post-thaw (1st block), .45 mg/ml) was 79. The PIA (Holstein 6 hr post-thaw (2nd block), .25 mg/ml) was 73, the PIA (Holstein 6 hr post-thaw (2nd block), .35 mg/ml) was 85 and the PIA (Holstein 6 hr post-thaw (2nd block), .45 mg/ml) was 79. For the same compound, the PIA (Jersey 3 hr post-thaw, .25 mg/ml) was 62, the PIA (Jersey 3 hr post-thaw, .35 mg/ml) was 54 and the PIA (Jersey 3 hr post-thaw, .45 mg/ml) was 71.
In the case of vitamin B12, the “PIA (percent intact acrosomes)” value (0.5 mg/ml, 2 step F, 3 hrs post-thaw, Bulls 1-5) was 84% and 87% and 88% and 79% and 74%, the PIA (.15 mg/ml, Holstein, 1M/straw, 3 hr post-thaw) was 66 and the PIA (.15 mg/ml, Holstein, 2.1M/straw, 3 hr post-thaw) was 72. The PIA (.15 mg/ml, Jersey, 2.1M/straw, 3 hr post-thaw) was 63, the PIA (.25 mg/ml, Holstein, 1M/straw, 3 hr post-thaw) was 58 and the PIA (.25 mg/ml, Holstein, 2.1M/straw, 3 hr post-thaw) was 76. For the same compound, the PIA (.25 mg/ml, Holstein, 5M/straw, 3 hr post-thaw) was 68, the PIA (.25 mg/ml, Jersey, 2.1M/straw, 3 hr post-thaw) was 78 and the PIA (.35 mg/ml, Holstein, 1M/straw, 3 hr post-thaw) was 70. It also gave a PIA (.35 mg/ml, Holstein, 2.1M/straw, 3 hr post-thaw) of 60, a PIA (.35 mg/ml, Holstein, 5M/straw, 3 hr post-thaw) of 69 and a PIA (.5 mg/ml, Holstein, 5M/straw, 3 hr post-thaw) of 50.
